Source: patent US12377102B2, “Compounds for the prevention and treatment of medical disorders and uses thereof” (GALECTIN SCIENCES, LLC, priority 2017, dated 2025)

What was measured:
[1] = target: galectin 1 interaction with integrin αMβ2 (Homo sapiens, UniProt P09382); test: ELISA galectin 1 interaction with integrin αMβ2; type: binding; conditions: FIG. 8E
Gal-3 CRD = Gal-3 CRD (Homo sapiens, UniProt P17931); test: Fluorescence Polarization with fluorescein-labeled carbohydrate probe; type: binding; conditions: FITC linked lactose derivative probe
Chain of Gal-3 CRD (P17931 whole entry): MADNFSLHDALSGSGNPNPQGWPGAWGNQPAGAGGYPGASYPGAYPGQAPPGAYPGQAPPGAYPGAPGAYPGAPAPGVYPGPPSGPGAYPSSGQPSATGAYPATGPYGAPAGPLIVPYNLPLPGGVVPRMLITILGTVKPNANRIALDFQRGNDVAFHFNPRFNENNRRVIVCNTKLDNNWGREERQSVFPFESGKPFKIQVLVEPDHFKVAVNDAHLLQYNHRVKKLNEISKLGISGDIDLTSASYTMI

[2] = target: Gal-3 binding to IGF-R1 (gene IGF1R) (Homo sapiens, UniProt P17931); test: ELISA Gal-3 binding to Insulin Like Growth Factor 1 Receptor; conditions: FIGS. 12G-1 to 12G-3
Chain of Gal-3 binding to IGF-R1 (gene IGF1R) (P17931 2-250 limits assumed): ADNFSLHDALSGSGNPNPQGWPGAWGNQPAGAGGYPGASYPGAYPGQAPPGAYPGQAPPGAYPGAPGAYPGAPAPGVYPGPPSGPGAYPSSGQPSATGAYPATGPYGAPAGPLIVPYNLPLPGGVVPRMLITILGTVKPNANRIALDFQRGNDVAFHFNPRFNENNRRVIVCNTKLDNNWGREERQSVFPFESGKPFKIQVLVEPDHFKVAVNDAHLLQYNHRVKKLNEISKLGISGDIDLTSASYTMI
Procedure: Using the ELISA composition assay described herein, in which the compounds were incubated with Gal-3 and the binding of Gal-3 with IGF-Receptor was tested.

[3] = target: galectin 9 interaction with integrin αMβ2 (Homo sapiens, UniProt O00182); test: ELISA galectin 9 interaction with integrin αMβ2; type: binding; conditions: FIG. 8E
Chain of galectin 9 interaction with integrin αMβ2 (O00182 whole entry): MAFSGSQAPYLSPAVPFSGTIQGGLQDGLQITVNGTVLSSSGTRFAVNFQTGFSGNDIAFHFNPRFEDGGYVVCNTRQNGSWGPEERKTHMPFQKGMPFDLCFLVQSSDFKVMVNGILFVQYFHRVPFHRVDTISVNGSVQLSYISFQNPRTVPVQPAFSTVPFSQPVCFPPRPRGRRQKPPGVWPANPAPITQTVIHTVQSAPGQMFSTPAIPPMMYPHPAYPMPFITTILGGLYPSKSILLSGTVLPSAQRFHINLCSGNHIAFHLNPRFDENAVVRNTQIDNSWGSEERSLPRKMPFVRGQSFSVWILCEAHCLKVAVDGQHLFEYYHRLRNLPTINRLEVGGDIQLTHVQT
From the text: (§1) Activated ELISA plate is coated with αMβ2 integrin.

recombinant human Gal-3 = target: T1, recombinant human Gal-3 (Homo sapiens, UniProt P17931); test: 1H-15N HSQC NMR shifts of 15N-labeled Gal-3 on compound addition; type: binding; conditions: full Gal-3
T1 construct: shifts of whole molecule of Gal-3 (Gal-3 FL); made in house; host or cells: E. coli BL21 (DE3)
T1 sequence (P17931 whole entry): as the sequence (P17931 whole entry) above
Procedure: Heteronuclear ^15N NMR spectroscopy was used to evaluate the interaction of compounds described herein with galectin molecules, including but not limited to Gal-3, to assess the interaction residues on the Gal-3 molecule.
NMR experiments were carried out at 30° C. on Bruker 600 MHz, 700 MHz or 850 MHz spectrometers equipped with H/C/N triple-resonance probes and x/y/z triple-axis pulse field gradient units. […] Raw data were converted and processed by using NMRPipe and were analyzed by using NMRview.

[4] = target: Gal-3 binding to Integrin αMβ2 (Homo sapiens, UniProt P17931); test: ELISA Gal-3 binding to integrin αMβ2
Chain of Gal-3 binding to Integrin αMβ2 (P17931 2-250 limits assumed): as the sequence (P17931 2-250 limits assumed) above
From the text: Illustrations of functional assays with Gal-3 binding pairing specific antibody with a Glycoprotein ligand, e.g. Gal-3 Binding-Protein (Gal-3 BP), Integrins, etc. (FIGS. 7A and 7B).
as §1

Chain of galectin 1 interaction with integrin αMβ2 (P09382 2-135 limits assumed): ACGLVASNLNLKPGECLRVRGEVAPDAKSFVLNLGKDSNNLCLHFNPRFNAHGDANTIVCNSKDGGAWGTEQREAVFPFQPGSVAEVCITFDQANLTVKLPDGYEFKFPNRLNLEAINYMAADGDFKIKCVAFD

inhibition of galectin 1 interaction with integrin αMβ2 [1]	Fluorescent Polarization inhibition signal (Gal-3 CRD)	effect on Gal-3 binding to IGF-R1 [2]	inhibition of galectin 9 interaction with integrin αMβ2 [3]	specificity for Gal-3 vs other galectins (1, 8, 9) ([4]; ELISA with integrin αMβ2, FIGS. 8D and 8E)	inhibition of Integrin αMβ2 interaction with Gal-3 ([4]; ELISA, FIGS. 8B, 8C, 12C)	Structure (SMILES)	interaction with amino-acids located in the CRD site (HSQC NMR) (recombinant human Gal-3)
inhibited	strong signal	cause inhibition	inhibited	non-specific interaction	inhibition	OC[C@H]1O[C@@H](S[C@@H]2O[C@H](CO)[C@H](O)[C@H](n3cc(-c4cccc(F)c4)nn3)[C@H]2O)[C@H](O)[C@@H](n2cc(-c3cccc(F)c3)nn2)[C@H]1O [TD-139]	create disturbances of amino-acid located in the CRD site
						Cc1ccc(COc2ccc(C=C3CCn4c3nc(=O)c3ccccc34)cc2)cc1 [AGS-0144, 3-({4-[(4-methylphenyl)methoxy]phenyl}methylidene)-1H,2H,3H,5H-pyrrolo[1,2-a]quinazolin-5-one]	have not directly interact with these amino-acids
